Data on three molecules can be found in US9468209B2, “Method for eradicating weeds with derivatives of 3-acetyl-5-sec-butyl-4-hydroxy-3-pyrrolin-2-one” (priority 2012, dated 2016).

Holding throughout (experiment): Leaf piece damage test
Common to all, as to assay type: in vivo
Common to all, as to design: key: 4: The leaf completely dead; 3: Two third of the leaf withered; 2: One half of the leaf withered; 1: Only edge of the leaf withered; 0: Not damage at all
Common to all, as to conditions: 50 μg/mL, 4 days

The subject of one assay is Common polypogon. An outline of the steps: (§1)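 Test compounds were dissolved in a little methanol and diluted in distilled water to 50 μg/mL, with methanol-water and pure water as controls. Five 5 mm pieces cut from the second leaf were treated three times per treatment. Damage was scored after 4 days and converted to a damage index.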
A further assay has as its system Rumex dentatus. The method, boiled down: as §1
The test system of a further assay is Eclipta prostrata. The method, boiled down: as §1
Assay [1] concerns Redroot pigweed (Amaramthus retroflexus). The method, boiled down:
as §1

Another assay has as its system Lapsana apogonoides. The method, boiled down: as §1
The next assay deals with Leptochloa chinensis. The method, boiled down: as §1
The subject of a further assay is Sonchus oleraceus. The method, boiled down:
as §1

The subject of the next assay is Conyza canademsis. An outline of the steps: as §1
For assay [2], the system named is Japanese false bindweed (Calystegia hederacea). An outline of the steps: as §1
The next assay has as its system Cyperus rotundus. An outline of the steps:
as §1

The next assay relates to Japanese alopecurus. An outline of the steps:
as §1

The next assay deals with Veronica didyma. The method, boiled down:
as §1

The next assay concerns Fimbristylis miliacea. The method, boiled down: as §1
A further assay has as its system Galeopsis bifida. An outline of the steps: as §1
A further assay concerns Rumex japonicus. An outline of the steps: as §1
Another assay deals with Plantago asiatica. An outline of the steps:
as §1

The next assay deals with Crisium setosum. An outline of the steps: as §1
The test system of a further assay is Oxalis corniculata. The method, boiled down:
as §1

The next assay relates to Perilla frutescens. An outline of the steps: as §1
A further assay has as its system Big Bristlegass. The method, boiled down: as §1
In assay [3] the test system is Barbyardgrass Echinochloa crusgalli. An outline of the steps: as §1
For another assay, the system named is Goose grass. The method, boiled down:
as §1

As for `CCCC(C#N)C1NC(=O)C(=C(C)O)C1=O` (stereo not drawn) [Compound 53], the Damage level in the assay with Common polypogon was determined as 4; with Rumex dentatus, 2; in the assay with Eclipta prostrata, 4; in assay [1], 3; with Lapsana apogonoides it was 3; in the assay on Leptochloa chinensis it was 4. For the same molecule, the Damage level worked out at 4 in the assay with Sonchus oleraceus; 3 with Conyza canademsis; 4 in [2]; 2 with Cyperus rotundus; 3 with Japanese alopecurus; 3 with Veronica didyma. For the same molecule, the Damage level turned out to be 2 with Fimbristylis miliacea; 3 in the assay on Galeopsis bifida; 3 in the assay on Rumex japonicus; 2 with Plantago asiatica; 4 in the assay on Crisium setosum; 4 in the assay with Oxalis corniculata. For the same molecule, the Damage level in the assay on Perilla frutescens is given as 2; in the assay with Big Bristlegass it was 3; in [3] it was 4; with Goose grass, 4.

In the case of `CCCCCC1NC(=O)C(C(C)=O)=C1O` (stereo not drawn) [Compound 15], the Damage level stood at 3 in the assay on Common polypogon; 2 in the assay on Rumex dentatus; 4 in the assay on Eclipta prostrata; 2 in assay [1]; 2 in the assay with Lapsana apogonoides; 4 in the assay on Leptochloa chinensis. Moreover, the Damage level in the assay with Sonchus oleraceus came out at 3; with Conyza canademsis, 3; in assay [2], 3; with Cyperus rotundus, 2; with Japanese alopecurus, 3; in the assay on Veronica didyma it was 2. For the same molecule, the Damage level with Fimbristylis miliacea came to 2; in the assay with Galeopsis bifida, 2; with Rumex japonicus it was 2; with Plantago asiatica it was 3; in the assay on Crisium setosum, 3; with Oxalis corniculata it was 3. Also, the Damage level was 3 in the assay with Perilla frutescens, 2 in the assay with Big Bristlegass, 4 in [3] and 3 in the assay on Goose grass.

In the case of `CCCCC1NC(=O)C(C(C)=O)=C1O` (stereo not drawn) [Compound 14], the Damage level with Common polypogon stood at 3; with Rumex dentatus, 2; in the assay on Eclipta prostrata, 3; in assay [1], 2; with Lapsana apogonoides, 3; in the assay with Leptochloa chinensis it was 4. The Damage level is listed as 3 in the assay on Sonchus oleraceus; 3 with Conyza canademsis; 3 in [2]; 2 in the assay on Cyperus rotundus; 3 in the assay with Japanese alopecurus; 3 in the assay on Veronica didyma. Further, the Damage level in the assay on Fimbristylis miliacea worked out at 2; in the assay on Galeopsis bifida it was 2; with Rumex japonicus, 1; in the assay with Plantago asiatica, 2; in the assay on Crisium setosum, 3; in the assay with Oxalis corniculata, 4. In addition, the Damage level in the assay with Perilla frutescens is 2; with Big Bristlegass, 2; in assay [3] it was 4; with Goose grass it was 3.
